Measurements: patent publication US9226501B2, “Pesticidal compositions and processes related thereto” (Dow AgroSciences LLC, priority 2012, dated 2016)

How the values were obtained:
[1] = system: Beet Armyworm (BAW) (spodoptera exigua); assay: Bioassay on beet armyworm (BAW), 128-well diet tray assay; assay type: in vivo; conditions: Table 5, prophetic compounds subsequently exemplified; beet armyworm
Experimental: (§1) Certain molecules disclosed in this document were tested against BAW, CEW and CL using procedures described in the following examples. In the reporting of the results, the “BAW & CEW & CL Rating Table” was used (See Table Section).
Bioassays on BAW were conducted using a 128-well diet tray assay. One to five second instar BAW larvae were placed in each well (3 mL) of the diet tray that had been previously filled with 1 mL of artificial diet to which 50 μg/cm^2 of the test compound (dissolved in 50 μL of 90:10 acetone-water mixture) had been applied (to each of eight wells) and then allowed to dry. Trays were covered with a clear self-adhesive cover, and held at 25° C., 14:10 light-dark for five to seven days. Percent mortality was recorded for the larvae in each well; activity in the eight wells was then averaged. The results are indicated in the tables entitled “Table 3: Assay Results Part 1” and “Table 4: Assay Results Part 2” (See Table Section).

[2] = system: Cabbage Looper (CL) (Trichoplusia ni); assay: Bioassay on cabbage looper (CL), 128-well diet tray assay; assay type: in vivo; conditions: Table 5, prophetic compounds subsequently exemplified; cabbage looper
Experimental: as §1
Bioassays on CL were conducted using a 128-well diet tray assay. One to five second instar CL larvae were placed in each well (3 mL) of the diet tray that had been previously filled with 1 mL of artificial diet to which 50 μg/cm^2 of the test compound (dissolved in 50 μL of 90:10 acetone-water mixture) had been applied (to each of eight wells) and then allowed to dry. Trays were covered with a clear self-adhesive cover, and held at 25° C., 14:10 light-dark for five to seven days. Percent mortality was recorded for the larvae in each well; activity in the eight wells was then averaged. The results are indicated in the table entitled “Table 4: Assay Results Part 2” (See Table Section).

SMILES	BAW Rating [1]	CL Rating [2]
C[C@@H](NC(=O)c1ccc(/C=C/C(c2cc(F)cc(Br)c2)C(F)(F)F)cc1C(F)(F)F)C(=O)NCC(F)(F)F (some centres unmarked) [P300]	A (50-100)	A (50-100)
Cc1ccc(C(/C=C/c2ccc(C(=O)N[C@H](C)C(=O)NCC(F)(F)F)c(Br)c2)C(F)(F)F)cc1Cl (some centres unmarked) [P442]	A (50-100)	A (50-100)
Cc1ccc(C(/C=C/c2ccc(C(=O)N[C@H](C)C(=O)NCC(F)(F)F)c(C(F)(F)F)c2)C(F)(F)F)cc1Cl (some centres unmarked) [P444]	A (50-100)	A (50-100)
Cc1cc(C(/C=C/c2ccc(C(=O)N[C@H](C)C(=O)NCC(F)(F)F)c(Br)c2)C(F)(F)F)cc(C)c1F (some centres unmarked) [P514]	A (50-100)	A (50-100)
Cc1cc(C(/C=C/c2ccc(C(=O)N[C@H](C)C(=O)NCC(F)(F)F)c(C(F)(F)F)c2)C(F)(F)F)cc(C)c1F (some centres unmarked) [P516]	A (50-100)	A (50-100)
C[C@@H](NC(=O)c1ccc(/C=C/C(c2ccc(Br)c(Br)c2)C(F)(F)F)cc1Br)C(=O)NCC(F)(F)F (some centres unmarked) [P568]	A (50-100)	A (50-100)
C[C@@H](NC(=O)c1ccc(/C=C/C(c2cc(Cl)cc(Br)c2)C(F)(F)F)cc1Br)C(=O)NCC(F)(F)F (some centres unmarked) [P586]	A (50-100)	A (50-100)
C[C@@H](NC(=O)c1ccc(/C=C/C(c2cc(Cl)cc(Br)c2)C(F)(F)F)cc1C(F)(F)F)C(=O)NCC(F)(F)F (some centres unmarked) [P588]	A (50-100)	A (50-100)
C[C@@H](NC(=O)c1ccc(/C=C/C(c2ccc(Br)c(Br)c2)C(F)(F)F)cc1C(F)(F)F)C(=O)NCC(F)(F)F (some centres unmarked) [P660]	A (50-100)	A (50-100)
C[C@@H](NC(=O)c1ccc(/C=C/C(c2ccc(Cl)c([N+](=O)[O-])c2)C(F)(F)F)cc1Br)C(=O)NCC(F)(F)F (some centres unmarked) [P730]	A (50-100)	A (50-100)
C[C@@H](NC(=O)c1ccc(/C=C/C(c2ccc(Cl)c([N+](=O)[O-])c2)C(F)(F)F)cc1C(F)(F)F)C(=O)NCC(F)(F)F (some centres unmarked) [P732]	A (50-100)	A (50-100)
C[C@@H](NC(=O)c1ccc(/C=C/C(c2ccc(F)c(C#N)c2)C(F)(F)F)cc1Br)C(=O)NCC(F)(F)F (some centres unmarked) [P802]	A (50-100)	A (50-100)
C[C@@H](NC(=O)c1ccc(/C=C/C(c2ccc(F)c(C#N)c2)C(F)(F)F)cc1C(F)(F)F)C(=O)NCC(F)(F)F (some centres unmarked) [P804]	A (50-100)	A (50-100)
Cc1cc(C(/C=C/c2ccc(C(=O)N[C@H](C)C(=O)NCC(F)(F)F)c(Br)c2)C(F)(F)F)ccc1F (some centres unmarked) [P1090]	A (50-100)	A (50-100)
Cc1cc(C(/C=C/c2ccc(C(=O)N[C@H](C)C(=O)NCC(F)(F)F)c(C(F)(F)F)c2)C(F)(F)F)ccc1F (some centres unmarked) [P1092]	A (50-100)	A (50-100)
O=C(CNC(=O)c1ccc(/C=C/C(c2cc(F)c(F)c(F)c2)C(F)(F)F)cc1Br)NCC(F)(F)F (centres unmarked) [P1197]	A (50-100)	A (50-100)
O=C(CNC(=O)c1ccc(/C=C/C(c2cc(C(F)(F)F)cc(C(F)(F)F)c2)C(F)(F)F)cc1Br)NCC(F)(F)F (centres unmarked) [P1269]	A (50-100)	A (50-100)
O=C(CNC(=O)c1ccc(/C=C/C(c2cc(F)cc(C(F)(F)F)c2)C(F)(F)F)cc1Br)NCC(F)(F)F (centres unmarked) [P1340]	A (50-100)	A (50-100)
O=C(CNC(=O)c1ccc(/C=C/C(c2cc(Cl)cc(C(F)(F)F)c2)C(F)(F)F)cc1Br)NCC(F)(F)F (centres unmarked) [P1411]	A (50-100)	A (50-100)
O=C(CNC(=O)c1ccc(/C=C/C(c2ccc(F)c(C(F)(F)F)c2)C(F)(F)F)cc1Br)NCC(F)(F)F (centres unmarked) [P1483]	A (50-100)	A (50-100)

SMILES	BAW Rating [1]	CL Rating [2]
O=C(CNC(=O)c1ccc(/C=C/C(c2cc(Cl)c(Cl)c(Cl)c2)C(F)(F)F)cc1C(F)(F)F)NCC(F)(F)F (centres unmarked) [P1556]	A (50-100)	A (50-100)
O=C(NCC(=S)NCC(F)(F)F)c1ccc(/C=C/C(c2cc(Cl)c(Cl)c(Cl)c2)C(F)(F)F)cc1Cl (centres unmarked) [P1558]	A (50-100)	A (50-100)
O=C(NCC(=S)NCC(F)(F)F)c1ccc(/C=C/C(c2cc(Cl)c(Cl)c(Cl)c2)C(F)(F)F)cc1C(F)(F)F (centres unmarked) [P1559]	A (50-100)	A (50-100)
Cc1cc(/C=C/C(c2cc(Cl)c(Cl)c(Cl)c2)C(F)(F)F)ccc1C(=O)NCC(=S)NCC(F)(F)F (centres unmarked) [P1560]	A (50-100)	A (50-100)
Cc1cc(/C=C/C(c2cc(Cl)c(Cl)c(Cl)c2)C(F)(F)F)ccc1C(=S)NCC(=O)NCC(F)(F)F (centres unmarked) [P1564]	A (50-100)	A (50-100)
O=C(CNC(=O)c1ccc(/C=C/C(c2cc(Cl)c(Cl)c(Cl)c2)C(F)(F)F)cc1C(F)(F)F)NCC(F)F (centres unmarked) [P1566]	A (50-100)	A (50-100)
CC(NC(=O)CNC(=O)c1ccc(/C=C/C(c2cc(Cl)c(Cl)c(Cl)c2)C(F)(F)F)cc1Br)C(F)(F)F (centres unmarked) [P1589]	A (50-100)	A (50-100)
CC(NC(=O)CNC(=O)c1ccc(/C=C/C(c2cc(Cl)c(Cl)c(Cl)c2)C(F)(F)F)cc1C(F)(F)F)C(F)(F)F (centres unmarked) [P1591]	A (50-100)	A (50-100)
Cc1cc(/C=C/C(c2cc(Cl)c(Cl)c(Cl)c2)C(F)(F)F)ccc1C(=O)NCC(=O)NC(C)C(F)(F)F (centres unmarked) [P1592]	A (50-100)	A (50-100)
C[C@@H](NC(=O)c1ccc(/C=C/C(c2cc(Cl)c(Cl)c(Cl)c2)C(F)(F)C(F)(F)F)cc1Br)C(=O)NCC(F)(F)F (some centres unmarked) [P1599]	A (50-100)	A (50-100)
C[C@@H](NC(=O)c1ccc(/C=C/C(c2cc(Cl)c(Cl)c(Cl)c2)C(F)(F)C(F)(F)F)cc1C(F)(F)F)C(=O)NCC(F)(F)F (some centres unmarked) [P1601]	A (50-100)	A (50-100)
C[C@@H](NC(=O)c1ccc(/C=C/C(c2cc(Cl)c(Cl)c(Cl)c2)C(F)(F)F)cc1)C(=O)NCC(F)(F)F (some centres unmarked) [P1603]	A (50-100)	A (50-100)
CC(NC(=O)c1ccc(/C=C/C(c2cc(Cl)c(Cl)c(Cl)c2)C(F)(F)F)cc1Br)C(=O)NCC(F)F (centres unmarked) [P1611A]	A (50-100)	A (50-100)
CC(NC(=O)c1ccc(/C=C/C(c2cc(Cl)c(Cl)c(Cl)c2)C(F)(F)F)cc1C(F)(F)F)C(=O)NCC(F)F (centres unmarked) [P1613A]	A (50-100)	A (50-100)
CC(NC(=O)c1ccc(/C=C/C(c2cc(Cl)c(Cl)c(Cl)c2)C(F)(F)F)cc1Br)C(=O)NCCF (centres unmarked) [P1616A]	A (50-100)	A (50-100)
C[C@@H](NC(=O)c1ccc(/C=C/C(c2cc(Cl)c(Cl)c(Cl)c2)C(F)(F)F)cc1Br)C(=O)NCCF (some centres unmarked) [P1616]	A (50-100)	A (50-100)
CC(NC(=O)c1ccc(/C=C/C(c2cc(Cl)c(Cl)c(Cl)c2)C(F)(F)F)cc1C(F)(F)F)C(=O)NCCF (centres unmarked) [P1618A, (E)-N-(1-((2-Fluoroethyl)amino)-1-oxopropan-2-yl)-4-(4,4,4-trifluoro-3-(3,4,5-trichlorophenyl)but-1-en-1-yl)-2-(trifluoromethyl)benzamide]	A (50-100)	A (50-100)
CCNC(=O)[C@@H](C)NC(=O)c1ccc(/C=C/C(c2cc(Cl)c(Cl)c(Cl)c2)C(F)(F)F)cc1Br (some centres unmarked) [P1621]	A (50-100)	A (50-100)
CCNC(=O)[C@@H](C)NC(=O)c1ccc(/C=C/C(c2cc(Cl)c(Cl)c(Cl)c2)C(F)(F)F)cc1C(F)(F)F (some centres unmarked) [P1623]	A (50-100)	A (50-100)
CCNC(=O)[C@@H](C)NC(=O)c1ccc(/C=C/C(c2cc(Cl)c(Cl)c(Cl)c2)C(F)(F)F)cc1C (some centres unmarked) [P1624]	A (50-100)	A (50-100)
